Reference: ChEMBL document CHEMBL1156616, “Syntheses and biological evaluation of topoisomerase I-targeting agents related to 11-[2-(N,N-dimethylamino)ethyl]-2,3-dimethoxy-8,9-methylenedioxy-11H-isoquino[4,3-c]cinnolin-12-one (ARC-31)” (Bioorg Med Chem, 2008)

Columns and labels:
[1] = test system: P388; experiment: Cytotoxicity against mouse CPT45-resistant topoisomerase 1-deficient P388 cells after 4 days by MTT assay; format: functional, cell-based; conditions: P388, 96 h
[2] = Cytotoxicity against human KB3-1 cells after 4 days by MTT assay; format: functional, cell-based; conditions: KB 3-1, 96 h
[3] = test system: P388; experiment: Cytotoxicity against mouse P388 cells after 4 days by MTT assay; format: functional, cell-based; conditions: P388, 96 h
[4] = Cytotoxicity against human multidrug resistant BCRP overexpressing human KBH5.0 cells after 4 days by MTT assay; format: functional, cell-based; conditions: KBH5.0 cell, 96 h
[5] = Cytotoxicity against human camptothecin-resistant CPT-K5 cells after 4 days by MTT assay; format: functional, cell-based; conditions: CPT-K5, 96 h
[6] = Cytotoxicity against human RPMI8402 cells after 4 days by MTT assay; format: functional, cell-based; conditions: RPMI 8402, 96 h
[7] = molecular target: T1, DNA topoisomerase 1 (Homo sapiens) (UniProt P11387); experiment: Inhibition of human topoisomerase 1 expressed in Escherichia coli assessed as YepG plasmid DNA cleavage
T1 sequence (whole entry): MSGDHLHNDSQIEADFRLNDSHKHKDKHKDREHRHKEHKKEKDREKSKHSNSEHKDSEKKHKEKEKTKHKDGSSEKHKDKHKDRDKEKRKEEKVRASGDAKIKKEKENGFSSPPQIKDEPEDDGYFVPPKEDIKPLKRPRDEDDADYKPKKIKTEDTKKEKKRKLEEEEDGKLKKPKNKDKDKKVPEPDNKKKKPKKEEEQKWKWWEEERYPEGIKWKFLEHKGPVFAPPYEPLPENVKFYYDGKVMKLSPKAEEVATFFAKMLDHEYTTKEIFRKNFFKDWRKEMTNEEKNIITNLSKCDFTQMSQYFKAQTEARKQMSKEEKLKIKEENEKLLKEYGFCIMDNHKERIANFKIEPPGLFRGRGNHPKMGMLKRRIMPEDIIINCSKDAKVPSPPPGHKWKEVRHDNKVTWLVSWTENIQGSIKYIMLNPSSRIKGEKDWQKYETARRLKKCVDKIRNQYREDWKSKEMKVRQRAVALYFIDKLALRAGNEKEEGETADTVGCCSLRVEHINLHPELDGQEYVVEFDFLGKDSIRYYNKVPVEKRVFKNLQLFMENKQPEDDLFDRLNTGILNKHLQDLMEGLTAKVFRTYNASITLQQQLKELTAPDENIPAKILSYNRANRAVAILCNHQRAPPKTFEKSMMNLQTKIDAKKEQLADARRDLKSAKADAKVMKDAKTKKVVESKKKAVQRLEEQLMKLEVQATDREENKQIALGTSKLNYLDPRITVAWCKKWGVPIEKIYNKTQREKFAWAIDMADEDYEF

[8] = Cytotoxicity against human multidrug resistant MDR1 overexpressing human KBV1 cells after 4 days by MTT assay; format: functional, cell-based; conditions: KB-V1, 96 h
[9] = test system: MDA-MB-231; experiment: Antitumor activity against human MDA-MB-231 cells xenografted in athymic nude mouse assessed as tumor volume on day 14 at initial dose of 1.0 mg/kg, ip qd X 4/week and dose adjustments were made based upon effect or lack of effect on average body weight (14.6 mg/kg total dose); format: functional; conditions: route intraperitoneal
[10] = test system: MDA-MB-231; experiment: Antitumor activity against human MDA-MB-231 cells xenografted in athymic nude mouse assessed as tumor volume on day 7 at initial dose of 1.0 mg/kg, ip qd X 4/week and dose adjustments were made based upon effect or lack of effect on average body weight (14.6 mg/kg total dose); format: functional; conditions: route intraperitoneal
[11] = test system: MDA-MB-231; experiment: Antitumor activity against human MDA-MB-231 cells xenografted in athymic nude mouse assessed as tumor volume on day 7 at initial dose of 2.0 mg/kg, po qd X 4/week and dose adjustments were made based upon effect or lack of effect on average body weight (29.3 mg/kg total dose); format: functional
[12] = test system: MDA-MB-231; experiment: Antitumor activity against human MDA-MB-231 cells xenografted in athymic nude mouse assessed as tumor volume on day 31 at initial dose of 2.0 mg/kg, po qd X 4/week and dose adjustments were made based upon effect or lack of effect on average body weight (29.3 mg/kg total dose); format: functional
[13] = test system: MDA-MB-231; experiment: Antitumor activity against human MDA-MB-231 cells xenografted in athymic nude mouse assessed as tumor volume on day 21 at initial dose of 2.0 mg/kg, po qd X 4/week and dose adjustments were made based upon effect or lack of effect on average body weight (29.3 mg/kg total dose); format: functional
[14] = test system: MDA-MB-231; experiment: Antitumor activity against human MDA-MB-231 cells xenografted in athymic nude mouse assessed as tumor volume on day 14 at initial dose of 2.0 mg/kg, po qd X 4/week and dose adjustments were made based upon effect or lack of effect on average body weight (29.3 mg/kg total dose); format: functional
[15] = test system: MDA-MB-231; experiment: Antitumor activity against human MDA-MB-231 cells xenografted in athymic nude mouse assessed as tumor volume on day 21 at initial dose of 1.0 mg/kg, ip qd X 4/week and dose adjustments were made based upon effect or lack of effect on average body weight (14.6 mg/kg total dose); format: functional; conditions: route intraperitoneal
[16] = test system: MDA-MB-231; experiment: Antitumor activity against human MDA-MB-231 cells xenografted in athymic nude mouse assessed as tumor volume on day 31 at initial dose of 1.0 mg/kg, ip qd X 4/week and dose adjustments were made based upon effect or lack of effect on average body weight (14.6 mg/kg total dose); format: functional; conditions: route intraperitoneal
[17] = test system: MDA-MB-231; experiment: Antitumor activity against human MDA-MB-231 cells xenografted in athymic nude mouse assessed as tumor volume on day 31 at initial dose of 3.0 mg/kg, po qd X 5/week for 2 weeks and dose adjustments were made based upon effect or lack of effect on average body weight (72.5 mg/kg total dose); format: functional
[18] = test system: MDA-MB-231; experiment: Antitumor activity against human MDA-MB-231 cells xenografted in athymic nude mouse assessed as tumor volume on day 14 at initial dose of 2.0 mg/kg, ip qd X 5/week for 2 weeks and dose adjustments were made based upon effect or lack of effect on average body weight (32.5 mg/kg total dose); format: functional; conditions: route intraperitoneal
[19] = test system: MDA-MB-231; experiment: Antitumor activity against human MDA-MB-231 cells xenografted in athymic nude mouse assessed as tumor volume on day 14 at initial dose of 3.0 mg/kg, po qd X 5/week for 2 weeks and dose adjustments were made based upon effect or lack of effect on average body weight (72.5 mg/kg total dose); format: functional
[20] = test system: MDA-MB-231; experiment: Antitumor activity against human MDA-MB-231 cells xenografted in athymic nude mouse assessed as tumor volume on day 21 at initial dose of 3.0 mg/kg, po qd X 5/week for 2 weeks and dose adjustments were made based upon effect or lack of effect on average body weight (72.5 mg/kg total dose); format: functional
[21] = test system: MDA-MB-231; experiment: Antitumor activity against human MDA-MB-231 cells xenografted in athymic nude mouse assessed as tumor volume on day 21 at initial dose of 2.0 mg/kg, ip qd X 5/week for 2 weeks and dose adjustments were made based upon effect or lack of effect on average body weight (32.5 mg/kg total dose); format: functional; conditions: route intraperitoneal
[22] = test system: MDA-MB-231; experiment: Antitumor activity against human MDA-MB-231 cells xenografted in athymic nude mouse assessed as tumor volume on day 31 at initial dose of 2.0 mg/kg, ip qd X 5/week for 2 weeks and dose adjustments were made based upon effect or lack of effect on average body weight (32.5 mg/kg total dose); format: functional; conditions: route intraperitoneal
[23] = test system: MDA-MB-231; experiment: Antitumor activity against human MDA-MB-231 cells xenografted in athymic nude mouse assessed as tumor volume on day 7 at initial dose of 3.0 mg/kg, po qd X 5/week for 2 weeks and dose adjustments were made based upon effect or lack of effect on average body weight (72.5 mg/kg total dose); format: functional
[24] = test system: MDA-MB-231; experiment: Antitumor activity against human MDA-MB-231 cells xenografted in athymic nude mouse assessed as tumor volume on day 7 at initial dose of 2.0 mg/kg, ip qd X 5/week for 2 weeks and dose adjustments were made based upon effect or lack of effect on average body weight (32.5 mg/kg total dose); format: functional; conditions: route intraperitoneal

Compound | IC50 [1] | IC50 [2] | IC50 [3] | IC50 [4] | IC50 [5] | IC50 [6] | REC [7] | IC50 [8] | other results
COc1cc2c(=O)n(CCN(C)CCN(C)C)c3c4cc5c(cc4nnc3c2cc1OC)OCO5 | 300 nM | 17 nM | 19 nM | 250 nM | 2200 nM | 33 nM | 0.4 | 180 nM | –
COc1cc2c(=O)n(CCN(Cc3ccccc3)C(C)C)c3c4cc5c(cc4nnc3c2cc1OC)OCO5 | 2300 nM | 16 nM | 21 nM | 40 nM | 3300 nM | 45 nM | 0.5 | 75 nM | –
COc1cc2c(=O)n(CCO)c3c4cc5c(cc4nnc3c2cc1OC)OCO5 | 700 nM | 10 nM | 12 nM | 55 nM | 1300 nM | 13 nM | 0.3 | 18 nM | –
CC[C@@]1(O)C(=O)OCc2c1cc1n(c2=O)Cc2cc3ccccc3nc2-1 [CAMPTOTHECIN] | > 10000 nM | 15 nM | 9 nM | – | – | 5 nM | 0.2 | – | –
COc1cc2c(=O)n(CCN(C)C)c3c4cc5c(cc4ncc3c2cc1OC)OCO5 | – | 5 nM | – | 12 nM | 900 nM | 2 nM | 0.3 | 15 nM | –
COc1cc2c(=O)n(CCN(C)C)c3c4cc5c(cc4nnc3c2cc1OC)OCO5 | 230 nM | 5 nM | 2 nM | 4 nM | 740 nM | 2 nM | 0.3 | 4 nM | –
COc1cc2c(=O)n(CCn3ccnc3)c3c4cc5c(cc4nnc3c2cc1OC)OCO5 | > 10000 nM | 380 nM | 190 nM | 3300 nM | > 10000 nM | 400 nM | 0.1 | 3300 nM | –
COc1cc2c(=O)n(CCNC(C)C)c3c4cc5c(cc4nnc3c2cc1OC)OCO5 | 110 nM | 0.5 nM | 2 nM | 2 nM | 300 nM | 3 nM | 0.08 | 7 nM | Activity [9]: 112 mm3; Activity [10]: 72 mm3; Activity [11]: 82 mm3; Activity [12]: 253 mm3; Activity [13]: 185 mm3; Activity [14]: 92 mm3; Activity [15]: 150 mm3; Activity [16]: 231 mm3
COc1cc2c(=O)n(CCN(C)Cc3ccccc3)c3c4cc5c(cc4nnc3c2cc1OC)OCO5 | 2800 nM | 35 nM | 25 nM | 40 nM | > 10000 nM | 40 nM | 0.4 | 85 nM | –
CNCCn1c(=O)c2cc(OC)c(OC)cc2c2nnc3cc4c(cc3c21)OCO4 | 200 nM | 0.7 nM | 1 nM | 18 nM | 230 nM | 3 nM | 0.03 | 23 nM | Activity [17]: 177 mm3; Activity [18]: 129 mm3; Activity [19]: 113 mm3; Activity [20]: 144 mm3; Activity [21]: 109 mm3; Activity [22]: 104 mm3; Activity [23]: 116 mm3; Activity [24]: 146 mm3
COc1cc2c(=O)n(CCNC(CO)(CO)CO)c3c4cc5c(cc4nnc3c2cc1OC)OCO5 | 3000 nM | 50 nM | 40 nM | 400 nM | 5700 nM | 65 nM | 0.2 | 280 nM | –
